According to ChEMBL document CHEMBL4304777 (Eur J Med Chem, 2019):

What was measured:
OVCAR-8 = test: Cytotoxicity against human OVCAR8 cells assessed as reduction in cell viability incubated for 72 hrs by SRB assay; assay type: functional, cell-based; conditions: OVCAR-8, 72 h
HCT-116 [1] = test: Cytotoxicity against human HCT116 cells assessed as reduction in cell viability incubated for 72 hrs by SRB assay; assay type: functional, cell-based; conditions: HCT-116, 72 h
MM1.S [2] = test: Antiproliferative activity against human MM1S cells assessed as reduction in cell viability; assay type: functional, cell-based
RPMI-8226 = test: Antiproliferative activity against human RPMI8226 cells assessed as reduction in cell viability; assay type: functional, cell-based
[3] = Antiproliferative activity against human CEM/C1 cells assessed as reduction in cell viability; assay type: functional, cell-based
MOLT-4 = test: Antiproliferative activity against human MOLT4 cells assessed as reduction in cell viability; assay type: functional, cell-based
MV4-11 = test: Antiproliferative activity against human MV4-11 cells assessed as reduction in cell viability; assay type: functional, cell-based
HuT78 = test: Antiproliferative activity against human HUT78 cells assessed as reduction in cell viability; assay type: functional, cell-based
JVM-2 = test: Antiproliferative activity against human JVM2 cells assessed as reduction in cell viability; assay type: functional, cell-based
U-937 = test: Antiproliferative activity against human U937 cells assessed as reduction in cell viability; assay type: functional, cell-based
K562 = test: Antiproliferative activity against human K562 cells assessed as reduction in cell viability; assay type: functional, cell-based
HCT-116 [4] = test: Induction of apoptosis in human HCT116 cells assessed as apoptotic cells at 0.4 uM incubated for 72 hrs by annexin V - FITC and propidium iodide staining based flow cytometry (reference value: 6.99 %); assay type: functional
HCT-116 [5] = test: Induction of apoptosis in human HCT116 cells assessed as apoptotic cells at 2 uM incubated for 72 hrs by annexin V - FITC and propidium iodide staining based flow cytometry (reference value: 6.99 %); assay type: functional
HCT-116 [6] = test: Induction of apoptosis in human HCT116 cells assessed as apoptotic cells at 10 uM incubated for 72 hrs by annexin V - FITC and propidium iodide staining based flow cytometry (reference value: 6.99 %); assay type: functional
[7] = target: RAC-alpha serine/threonine-protein kinase (Homo sapiens, UniProt P31749); test: Inhibition of Akt1 (unknown origin) expressed in Escherichia coli using peptide as substrate incubated for 1 hr by HTRF assay
CCRF-CEM = test: Antiproliferative activity against human CCRF-CEM cells assessed as reduction in cell viability; assay type: functional, cell-based
[8] = Antiproliferative activity against human Mino cells assessed as reduction in cell viability; assay type: functional, cell-based
[9] = Tmax in Sprague-Dawley rat at 10 mg/kg, po measured up 48 hrs by LC-MS/MS analysis; assay type: ADME, organism-based; conditions: in vivo
[10] = Half life in Sprague-Dawley rat at 10 mg/kg, po measured up 48 hrs by LC-MS/MS analysis; assay type: ADME, organism-based; conditions: in vivo
[11] = Cmax in Sprague-Dawley rat at 10 mg/kg, po measured up 48 hrs by LC-MS/MS analysis; assay type: ADME, organism-based; set-up: dose 10 mg/kg, route oral; conditions: in vivo
[12] = AUC (0 to t) in Sprague-Dawley rat at 10 mg/kg, po measured up 48 hrs by LC-MS/MS analysis; assay type: ADME, organism-based; conditions: in vivo
[13] = AUC (0 to infinity) in Sprague-Dawley rat at 10 mg/kg, po measured up 48 hrs by LC-MS/MS analysis; assay type: ADME, organism-based; set-up: dose 10 mg/kg, time infinity, route oral; conditions: in vivo
[14] = Oral bioavailability in Sprague-Dawley rat at 10 mg/kg, measured up 48 hrs by LC-MS/MS analysis; assay type: ADME, organism-based; conditions: in vivo
[15] = Tmax in Sprague-Dawley rat at 2 mg/kg, iv measured up 48 hrs by LC-MS/MS analysis; assay type: ADME, organism-based; conditions: in vivo
[16] = Half life in Sprague-Dawley rat at 2 mg/kg, iv measured up 48 hrs by LC-MS/MS analysis; assay type: ADME, organism-based; conditions: in vivo
[17] = Cmax in Sprague-Dawley rat at 2 mg/kg, iv measured up 48 hrs by LC-MS/MS analysis; assay type: ADME, organism-based; set-up: dose 2 mg/kg, route intravenous; conditions: in vivo
[18] = AUC (0 to t) in Sprague-Dawley rat at 2 mg/kg, iv measured up 48 hrs by LC-MS/MS analysis; assay type: ADME, organism-based; conditions: in vivo
[19] = AUC (0 to infinity) in Sprague-Dawley rat at 2 mg/kg, iv measured up 48 hrs by LC-MS/MS analysis; assay type: ADME, organism-based; set-up: dose 2 mg/kg, time infinity, route intravenous; conditions: in vivo
hERG (KCNH2) = hERG (KCNH2) (Homo sapiens, UniProt Q12809); test: Inhibition of human ERG expressed in HEK293 cells at 3 uM at - 40 mV holding potential by whole cell patch clamp assay relative to control; assay type: cell-based; conditions: HEK293 cells expressing human ERG
[20] = Stability in mouse liver microsomes assessed as remaining compound at 100 ug/ml incubated for 1.5 hrs by LC-MS analysis; assay type: ADME, Microsome; conditions: read-out: Stability
[21] = Stability in rat liver microsomes assessed as remaining compound at 100 ug/ml incubated for 1.5 hrs by LC-MS analysis; assay type: ADME, Microsome; conditions: read-out: Stability
[22] = Stability in dog liver microsomes assessed as remaining compound at 100 ug/ml incubated for 1.5 hrs by LC-MS analysis; assay type: ADME, Canis lupus familiaris, Microsome; conditions: read-out: Stability
[23] = Stability in human liver microsomes assessed as remaining compound at 100 ug/ml incubated for 1.5 hrs by LC-MS analysis; assay type: ADME, Microsome; conditions: read-out: Stability
[24] = Stability in rat plasma assessed as remaining compound at 100 ug/ml incubated for 1.5 hrs by LC-MS analysis; assay type: ADME, cell-free; conditions: read-out: Stability
[25] = Stability in human plasma assessed as remaining compound at 100 ug/ml incubated for 1.5 hrs by LC-MS analysis; assay type: ADME, cell-free; conditions: read-out: Stability
[26] = Toxicity in BALB/c mouse xenografted with human MM1S cells assessed as body weight loss at 15 to 30 mg/kg, po administered once daily for 14 days; assay type: organism-based; conditions: in vivo, 336 h
MM1.S [27] = test: Antitumor activity against human MM1S cells xenografted in BALB/c mouse assessed as tumor growth inhibition at 15 mg/kg, po administered for 14 days; assay type: functional; conditions: 336 h, read-out: TGI
MM1.S [28] = test: Antitumor activity against human MM1S cells xenografted in BALB/c mouse assessed as tumor growth inhibition at 30 mg/kg, po administered for 14 days; assay type: functional; conditions: 336 h, read-out: TGI

Sequence of RAC-alpha serine/threonine-protein kinase (P31749 whole entry): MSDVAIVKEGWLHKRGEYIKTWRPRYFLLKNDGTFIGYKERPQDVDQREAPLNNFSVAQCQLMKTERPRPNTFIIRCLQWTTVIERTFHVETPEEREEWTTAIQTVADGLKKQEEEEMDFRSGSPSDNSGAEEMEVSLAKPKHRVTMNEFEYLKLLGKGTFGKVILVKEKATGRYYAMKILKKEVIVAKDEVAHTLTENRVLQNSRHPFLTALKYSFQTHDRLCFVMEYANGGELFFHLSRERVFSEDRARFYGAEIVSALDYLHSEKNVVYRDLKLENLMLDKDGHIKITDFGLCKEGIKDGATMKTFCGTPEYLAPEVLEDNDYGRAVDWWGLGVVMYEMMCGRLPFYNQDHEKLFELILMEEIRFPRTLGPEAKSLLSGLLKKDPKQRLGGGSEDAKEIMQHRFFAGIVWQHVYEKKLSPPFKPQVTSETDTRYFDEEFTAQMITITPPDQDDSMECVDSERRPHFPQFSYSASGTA
Sequence of hERG (KCNH2) (Q12809 whole entry): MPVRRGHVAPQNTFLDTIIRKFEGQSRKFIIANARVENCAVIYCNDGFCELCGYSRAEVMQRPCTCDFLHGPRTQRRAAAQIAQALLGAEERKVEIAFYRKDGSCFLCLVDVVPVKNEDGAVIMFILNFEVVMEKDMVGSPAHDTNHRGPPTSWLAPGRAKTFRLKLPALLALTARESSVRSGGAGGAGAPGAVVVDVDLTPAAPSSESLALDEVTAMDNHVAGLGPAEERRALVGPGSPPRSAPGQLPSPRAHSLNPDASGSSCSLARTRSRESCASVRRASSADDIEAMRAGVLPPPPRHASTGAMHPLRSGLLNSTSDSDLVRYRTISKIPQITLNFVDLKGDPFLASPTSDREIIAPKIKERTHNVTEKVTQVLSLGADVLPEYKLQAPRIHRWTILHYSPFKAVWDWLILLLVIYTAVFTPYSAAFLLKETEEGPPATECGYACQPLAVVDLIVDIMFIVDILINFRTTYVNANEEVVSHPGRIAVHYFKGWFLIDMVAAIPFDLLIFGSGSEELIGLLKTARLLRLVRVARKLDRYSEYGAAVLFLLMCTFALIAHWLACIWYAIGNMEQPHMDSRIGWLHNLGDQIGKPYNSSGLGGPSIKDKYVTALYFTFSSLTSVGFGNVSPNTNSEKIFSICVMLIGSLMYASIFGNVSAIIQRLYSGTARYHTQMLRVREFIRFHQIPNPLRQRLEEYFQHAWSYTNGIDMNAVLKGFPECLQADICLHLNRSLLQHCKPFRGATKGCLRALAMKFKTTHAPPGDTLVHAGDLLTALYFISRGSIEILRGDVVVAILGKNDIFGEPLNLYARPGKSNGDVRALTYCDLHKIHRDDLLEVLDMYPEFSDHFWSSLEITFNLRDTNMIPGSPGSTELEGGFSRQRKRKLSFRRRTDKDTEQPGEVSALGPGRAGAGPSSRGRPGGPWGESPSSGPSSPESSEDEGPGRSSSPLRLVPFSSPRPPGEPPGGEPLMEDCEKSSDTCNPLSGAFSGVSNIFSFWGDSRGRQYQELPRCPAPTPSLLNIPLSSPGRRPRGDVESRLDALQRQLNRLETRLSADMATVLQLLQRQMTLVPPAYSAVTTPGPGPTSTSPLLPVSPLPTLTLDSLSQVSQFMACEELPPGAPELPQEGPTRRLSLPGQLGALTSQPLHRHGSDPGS

Structure (SMILES): Cl.Cn1ncc(Cl)c1-c1ccc(C(=O)N[C@@H]2CNCC[C@H]2c2cccc(F)c2)s1
- IC50 (OVCAR-8): 230 nM
- IC50 (HCT-116 [1]): 440 nM
- IC50 (MM1.S [2]): 21 nM
- IC50 (RPMI-8226): 263 nM
- IC50 [3]: 28 nM
- IC50 (MOLT-4): 50 nM
- IC50 (MV4-11): 135 nM
- IC50 (HuT78): 298 nM
- IC50 (JVM-2): 208 nM
- IC50 (U-937): 78 nM
- IC50 (K562): > 3000 nM
- Activity (HCT-116 [4]): 11.66%
- Activity (HCT-116 [5]): 22.68%
- Activity (HCT-116 [6]): 89.62%

Structure (SMILES): Cn1nccc1-c1ccc(C(=O)N[C@@H]2CNCC[C@H]2c2ccc(Cl)cc2)s1
- IC50 [7]: 10.2 nM
- IC50 (OVCAR-8): 1390 nM
- IC50 (HCT-116 [1]): 8870 nM

Structure (SMILES): Cn1ncc(Cl)c1-c1csc(C(=O)N[C@@H]2CNCC[C@H]2c2ccc(Cl)cc2)c1
- IC50 [7]: 13.7 nM
- IC50 (OVCAR-8): 5690 nM
- IC50 (HCT-116 [1]): 1210 nM

Structure (SMILES): Cn1ncc(Br)c1-c1ccc(C(=O)N[C@@H]2CNCC[C@H]2c2cccc(F)c2)s1
- IC50 [7]: 5.46 nM
- IC50 (HCT-116 [1]): 890 nM

Structure (SMILES): Cn1nccc1-c1ccc(C(=O)N[C@@H]2CNCC[C@H]2c2cccc(F)c2)s1
- IC50 [7]: 10.6 nM
- IC50 (OVCAR-8): 1590 nM
- IC50 (HCT-116 [1]): 1370 nM

Structure (SMILES): Cl.Cn1ncc(Cl)c1-c1csc(C(=O)N[C@@H]2CNCC[C@H]2c2cccc(F)c2)c1
- IC50 [7]: 1.26 nM
- IC50 (HCT-116 [1]): 950 nM
- IC50 (MM1.S [2]): 2 nM
- IC50 (RPMI-8226): 49 nM
- IC50 [3]: 7 nM
- IC50 (MOLT-4): 14 nM
- IC50 (MV4-11): 441 nM
- IC50 (U-937): 188 nM
- IC50 (CCRF-CEM): 8 nM
- IC50 [8]: 531 nM
- IC50 (K562): > 3000 nM
- Activity (HCT-116 [4]): 7.73%
- Activity (HCT-116 [5]): 8.69%
- Activity (HCT-116 [6]): 24.58%
- Tmax [9]: 2.75 h
- half-life [10]: 4.74 h
- Cmax [11]: 423 ng/mL
- AUC(0-t) at 48 h [12]: 3890 ng·h/mL
- AUC(0-inf) [13]: 3940 ng·h/mL
- bioavailability [14]: 52%
- Tmax [15]: 4.98 min
- half-life [16]: 3.52 h
- Cmax [17]: 1440 ng/mL
- AUC(0-t) at 48 h [18]: 1480 ng·h/mL
- AUC(0-inf) [19]: 1510 ng·h/mL
- inhibition at 3 µM (hERG (KCNH2)): 40%
- remaining at 1.5 h, 100 ug/ml [20]: 82.7%
- remaining at 1.5 h, 100 ug/ml [21]: 63.7%
- remaining at 1.5 h, 100 ug/ml [22]: 81.3%
- remaining at 1.5 h, 100 ug/ml [23]: 88.3%
- remaining at 1.5 h, 100 ug/ml [24]: > 99%
- remaining at 1.5 h, 100 ug/ml [25]: > 99%
- Activity [26]: Toxic
- inhibition in vivo at 15 mg/kg (MM1.S [27]): 40.7%
- inhibition in vivo at 30 mg/kg (MM1.S [28]): 42.1%

Structure (SMILES): Cn1ncc(Cl)c1-c1ccc(C(=O)N[C@@H]2CNCC[C@H]2c2ccc(Cl)cc2)s1
- IC50 [7]: 1.8 nM
- IC50 (OVCAR-8): 1470 nM
- IC50 (HCT-116 [1]): 3020 nM

Structure (SMILES): Cn1ncc(CO)c1-c1ccc(C(=O)N[C@@H]2CNCC[C@H]2c2cccc(F)c2)s1
- IC50 [7]: 62.2 nM
- IC50 (OVCAR-8): 7170 nM
- IC50 (HCT-116 [1]): 7420 nM

Structure (SMILES): Cn1ncc(Cl)c1-c1ccc(C(=O)N[C@@H]2CNCC[C@H]2c2ccc(Cl)c(C(F)(F)F)c2)s1
- IC50 [7]: 65.2 nM
- IC50 (OVCAR-8): 640 nM
- IC50 (HCT-116 [1]): 1410 nM

Structure (SMILES): Cn1ncc(C(=O)O)c1-c1ccc(C(=O)N[C@@H]2CNCC[C@H]2c2cccc(F)c2)s1
- IC50 [7]: 101 nM
- IC50 (OVCAR-8): > 50000 nM
- IC50 (HCT-116 [1]): > 50000 nM

Structure (SMILES): C=Cc1cnn(C)c1-c1ccc(C(=O)N[C@@H]2CNCC[C@H]2c2cccc(F)c2)s1
- IC50 [7]: 46.9 nM
- IC50 (OVCAR-8): 3190 nM
- IC50 (HCT-116 [1]): 6850 nM

Structure (SMILES): Cn1ncc(-c2ccccc2)c1-c1ccc(C(=O)N[C@@H]2CNCC[C@H]2c2cccc(F)c2)s1
- IC50 [7]: 70.4 nM
- IC50 (OVCAR-8): 2510 nM
- IC50 (HCT-116 [1]): 4420 nM

Structure (SMILES): Cn1ncc(Cl)c1-c1csc(C(=O)N[C@@H]2CNCC[C@H]2c2ccc(Cl)c(C(F)(F)F)c2)c1
- IC50 [7]: 35.3 nM
- IC50 (OVCAR-8): 580 nM
- IC50 (HCT-116 [1]): 1850 nM

Structure (SMILES): CCc1cnn(C)c1-c1ccc(C(=O)N[C@@H]2CNCC[C@H]2c2cccc(F)c2)s1
- IC50 [7]: 48.9 nM
- IC50 (OVCAR-8): 2700 nM
- IC50 (HCT-116 [1]): 2830 nM

Structure (SMILES): Cn1ncc(-c2ccncc2)c1-c1ccc(C(=O)N[C@@H]2CNCC[C@H]2c2cccc(F)c2)s1
- IC50 [7]: 99.9 nM
- IC50 (OVCAR-8): 28000 nM
- IC50 (HCT-116 [1]): 24000 nM

Structure (SMILES): Cc1cnn(C)c1-c1ccc(C(=O)N[C@@H]2CNCC[C@H]2c2cccc(F)c2)s1
- IC50 [7]: 9 nM
- IC50 (OVCAR-8): 1740 nM
- IC50 (HCT-116 [1]): 1780 nM

Structure (SMILES): Cn1ncc(Cl)c1-c1cc(C(=O)N[C@H](CN)Cc2ccc(F)c(F)c2)oc1Cl [UPROSERTIB]
- IC50 (OVCAR-8): 540 nM
- IC50 (HCT-116 [1]): 1750 nM
- IC50 (MM1.S [2]): 32 nM
- IC50 (RPMI-8226): 538 nM
- IC50 [3]: 30 nM
- IC50 (MOLT-4): 66 nM
- IC50 (MV4-11): 635 nM
- IC50 (HuT78): 378 nM
- IC50 (JVM-2): 293 nM
- IC50 (U-937): 101 nM
- IC50 (K562): > 3000 nM
- inhibition in vivo at 30 mg/kg (MM1.S [28]): 36.8%
